≈ marks a conversion by molar mass, not a printed value. Like-named read-outs stand apart in the source and are kept apart here.
Assays:
S. pneumoniae = assay: Antibiotic susceptibility (MIC, Sensititre Trays) with rBPI21 poloxamer formulations; type: cell-based; settings: for MIC: Streptococcus pneumoniae, read-out: Minimum Inhibitory Concentration
Experimental: The effect of therapeutic compositions of rBPI21 formulated with poloxamer, with or without EDTA, was evaluated on the antibiotic susceptibility of the multiple drug resistant A. baumannii, S. pneumoniae, E. faecium and P. aeruginosa organisms of Example 5. Therapeutic compositions were prepared containing 2 mg/mL rBPI21, (5 mM sodium citrate, 150 mM NaCl) with a 0.2% (w/v) concentration of PLURONIC F68, P103, P104, P105 or P123. The effect on the antibiotic susceptibility of the organisms was determined in Mueller-Hinton Broth plus Cations (CSMHB, Remel), or 40% pooled human serum in CSMHB (Sigma, St. Louis, Mo.), as follows.
Isolated colonies of the organism from overnight cultures were suspended in Microscan® Inoculum Water to a concentration equivalent to a 0.5 McFarland Standard (approximately 1×10^8 CFU/ml), determined using a Microscan® turbidimeter. Aliquots were transferred to either CSMHB or 40% pooled human serum in CSMHB. Each tube contained either a final concentration of 16 μg/mL rBPI21 or an equivalent volume of control buffer. Minimal inhibitory concentrations (MIC) for each antibiotic tested, i.e. the lowest concentration of antibiotic which inhibits visible growth, were determined using gram-negative (MB and MC) and gram-positive (MA) Sensititre Trays (Radiometer America, Westlake, Ohio), which allow for the rapid and simultaneous survey of a broad spectrum of standard antibiotics. Any other antimicrobial panel systems known in the art, such as the Microscan® (Dade Microscan, Sacramento, Calif.), Pasco (DIFCO, Detroit, Mich.) and Alamar (Alamar, Sacramento, Calif.) systems, may alternatively be used to assay for antibiotic susceptibility.
Tables 12-15 below display a summary of the results of the antibiotic screening panels, reported for each strain tested as the MIC of the tested antibiotics in the presence of the indicated rBPI21 therapeutic composition. The antibiotic susceptibility standards (interpretation of an MIC as clinically resistant (R), intermediate (I) or susceptible (S) according to NCCLS standards) applicable to the organism tested appear in superscript next to the MIC.

[1] = tested on: Candida albicans and Candida parapsilosis; settings: BPI at 10^−6 M; pH 7.0 or 5.5; cited from earlier work
[2] = tested on: gram-positive organisms (Staphylococcus aureus, Staphylococcus epideimidis, Streptococcus faecalis, Bacillus subtilis, Micrococcus Iysodeikticus, Listeria …); settings: BPI at 10^−6 M or 160 μg/ml; pH of either 7.0 or 5.5; cited from earlier work
gram-negative bacteria = settings: broad range of gram-negative bacteria; Elsbach and Weiss (1992); cited from earlier work
[3] = tested on: human, rabbit and sheep red blood cells and several human tumor cell lines; settings: BPI at 10^−6 M; cited from earlier work
[4] = CSMHB, 16 μg/mL rBPI21 with F68
[5] = CSMHB, 16 μg/mL rBPI21 with P103
[6] = CSMHB, 16 μg/mL rBPI21 with P104
[7] = CSMHB, 16 μg/mL rBPI21 with P105
[8] = CSMHB, 16 μg/mL rBPI21 with P123
[9] = Serum, 16 μg/mL rBPI21 with F68
[10] = Serum, 16 μg/mL rBPI21 with P103
[11] = Serum, 16 μg/mL rBPI21 with P104
[12] = Serum, 16 μg/mL rBPI21 with P105
[13] = Serum, 16 μg/mL rBPI21 with P123

Molecule: Cc1onc(-c2ccccc2)c1C(=O)N[C@@H]1C(=O)N2[C@@H]1SC(C)(C)[C@@H]2C(=O)O [Oxacillin]
- susceptibility interpretation of MIC (superscript) (S. pneumoniae; [4]): R
- susceptibility interpretation of MIC (superscript) (S. pneumoniae; [5]): S
- susceptibility interpretation of MIC (superscript) (S. pneumoniae; [6]): S
- susceptibility interpretation of MIC (superscript) (S. pneumoniae; [7]): S
- susceptibility interpretation of MIC (superscript) (S. pneumoniae; [8]): S
- susceptibility interpretation of MIC (superscript) (S. pneumoniae; CSMHB, Control (no BPI)): R
- susceptibility interpretation of MIC (superscript) (S. pneumoniae; [9]): R
- susceptibility interpretation of MIC (superscript) (S. pneumoniae; [10]): R
- susceptibility interpretation of MIC (superscript) (S. pneumoniae; [11]): R
- susceptibility interpretation of MIC (superscript) (S. pneumoniae; [12]): R
- susceptibility interpretation of MIC (superscript) (S. pneumoniae; [13]): R
- susceptibility interpretation of MIC (superscript) (S. pneumoniae; Serum, Control (no BPI)): R
- MIC (S. pneumoniae; [4]): 32 µg/mL (≈ 79.7 µM)
- MIC (S. pneumoniae; [5]): < 0.25 µg/mL
- MIC (S. pneumoniae; [6]): 0.5 µg/mL (≈ 1.25 µM)
- MIC (S. pneumoniae; [7]): 1 µg/mL (≈ 2.49 µM)
- MIC (S. pneumoniae; [8]): 0.5 µg/mL (≈ 1.25 µM)
- MIC (S. pneumoniae; CSMHB, Control (no BPI)): 32 µg/mL (≈ 79.7 µM)
- MIC (S. pneumoniae; [9]): > 32 µg/mL
- MIC (S. pneumoniae; [10]): 32 µg/mL (≈ 79.7 µM)
- MIC (S. pneumoniae; [11]): 32 µg/mL (≈ 79.7 µM)
- MIC (S. pneumoniae; [12]): 32 µg/mL (≈ 79.7 µM)
- MIC (S. pneumoniae; [13]): 32 µg/mL (≈ 79.7 µM)
- MIC (S. pneumoniae; Serum, Control (no BPI)): 32 µg/mL (≈ 79.7 µM)

B1: BPI: bactericidal/permeability-increasing protein isolated from granules of mammalian polymorphonuclear leukocytes (protein, UniProt P17213 32-487, looked up)
Bactericidal …: VNPGVVVRISQKGLDYASQQGTAALQKELKRIKIPDYSDSFKIKHLGKGHYSFYSMDIREFQLPSSQISMVPNVGLKFSISNANIKISGKWKAQKRFLKMSGNFDLSIEGMSISADLKLGSNPTSGKPTITCSSCSSHINSVHVHISKSKVGWLIQLFHKKIESALRNKMNSQVCEKVTNSVSSELQPYFQTLPVMTKIDSVAGINYGLVAPPATTAETLDVQMKGEFYSENHHNPPPFAPPVMEFPAAHDRMVYLGLSDYFFNTAGLVYQEAGVLKMTLRDDMIPKESKFRLTTKFFGTFLPEVAKKFPNMKIQIHVSASTPPHLSVQPTGLTFYPAVDVQAFAVLPNSSLASLFLIGMHTTGSMEVSAESNRLVGELKLDRLLLELKHSNIGPFPVELLQDIMNYIVPILVLPRVNEKLQKGFPLPTPARVQLYNVVLQPHQNFLLFGADVVYK
- toxic effect on fungi [1]: no toxic effect
- toxic effect on gram-positive organisms [2]: no toxic effect
- concentrations at which BPI exhibits anti-bacterial activity (as low as) (gram-negative bacteria): 10^−8 to 10^−9 M
- toxicity to higher eukaryotic cells [3]: non-toxic

Source: US6849598B1, “Therapeutic compositions comprising bactericidal/permeability-increasing (BPI) protein products” (XOMA, priority 1995, dated 2005)
